How the values were obtained:
Test in all cases: relative viability (nuclei count vs DMSO), 5 days (fraction); higher = more cells survive
Pictilisib + AZD7762 = compound: CS(=O)(=O)N1CCN(Cc2cc3nc(-c4cccc5[nH]ncc45)nc(N4CCOCC4)c3s2)CC1 [Pictilisib] + NC(=O)Nc1cc(-c2cccc(F)c2)sc1C(=O)N[C@H]1CCCNC1 [AZD7762] (partner 0.2 µM)
Method in brief: (§1)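 Relative viability divides the nuclei count in treated wells by that in vehicle wells. Lung cancer cell lines were seeded in 1536-well plates, dosed by pin tool the next day, and fixed and stained after 5 days in one step with final 0.05% Triton X-100, 1% formaldehyde and 1 ug/ml Hoechst. Dosing was a single drug or a fixed anchor-drug dose plus five library-drug doses (not always all listed) in √10 steps, and values are medians of duplicate plates imaged at 4×.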

Pictilisib + Vorinostat = compound: CS(=O)(=O)N1CCN(Cc2cc3nc(-c4cccc5[nH]ncc45)nc(N4CCOCC4)c3s2)CC1 [Pictilisib] + O=C(CCCCCCC(=O)Nc1ccccc1)NO [Vorinostat] (partner 1 µM)
Method in brief: as §1

MK-2206 + Crizotinib = compound: NC1(c2ccc(-c3nc4ccn5c(=O)[nH]nc5c4cc3-c3ccccc3)cc2)CCC1 [MK-2206] + C[C@@H](Oc1cc(-c2cnn(C3CCNCC3)c2)cnc1N)c1c(Cl)ccc(F)c1Cl [Crizotinib] (partner 1 µM)
Method in brief: as §1

Pictilisib + Alpelisib = compound: CS(=O)(=O)N1CCN(Cc2cc3nc(-c4cccc5[nH]ncc45)nc(N4CCOCC4)c3s2)CC1 [Pictilisib] + Cc1nc(NC(=O)N2CCC[C@H]2C(N)=O)sc1-c1ccnc(C(C)(C)C(F)(F)F)c1 [Alpelisib] (partner 2 µM)
Method in brief: as §1

MK-2206 + Tozasertib = compound: NC1(c2ccc(-c3nc4ccn5c(=O)[nH]nc5c4cc3-c3ccccc3)cc2)CCC1 [MK-2206] + Cc1cc(Nc2cc(N3CCN(C)CC3)nc(Sc3ccc(NC(=O)C4CC4)cc3)n2)n[nH]1 [Tozasertib] (partner 0.1 µM)
Method in brief: as §1

| Cell Line | relative viability (Pictilisib + AZD7762; first compound 0.02 µM) | relative viability (Pictilisib + AZD7762; first compound 0.06325 µM) | relative viability (Pictilisib + AZD7762; first compound 0.6325 µM) | relative viability (Pictilisib + AZD7762; first compound 2 µM) | relative viability (Pictilisib + Vorinostat; first compound 0.02 µM) | relative viability (Pictilisib + Vorinostat; first compound 0.06325 µM) | relative viability (Pictilisib + Vorinostat; first compound 0.6325 µM) | relative viability (Pictilisib + Vorinostat; first compound 2 µM) | relative viability (MK-2206 + Crizotinib; first compound 0.01 µM) | relative viability (MK-2206 + Crizotinib; first compound 0.03162 µM) | relative viability (MK-2206 + Crizotinib; first compound 0.3162 µM) | relative viability (MK-2206 + Crizotinib; first compound 1 µM) | relative viability (Pictilisib + Alpelisib; first compound 0.02 µM) | relative viability (Pictilisib + Alpelisib; first compound 0.06325 µM) | relative viability (Pictilisib + Alpelisib; first compound 0.6325 µM) | relative viability (Pictilisib + Alpelisib; first compound 2 µM) | relative viability (MK-2206 + Tozasertib; first compound 0.01 µM) | relative viability (MK-2206 + Tozasertib; first compound 0.03162 µM) | relative viability (MK-2206 + Tozasertib; first compound 0.3162 µM) | relative viability (MK-2206 + Tozasertib; first compound 1 µM) |
| --- | --- | --- | --- | --- | --- | --- | --- | --- | --- | --- | --- | --- | --- | --- | --- | --- | --- | --- | --- | --- |
| HCC-366 | 0.316 | 0.259 | 0.204 | 0.0615 | 0.45 | 0.368 | 0.226 | 0.118 | 0.48 | 0.532 | 0.452 | 0.442 | 0.452 | 0.386 | 0.335 | 0.174 | 0.159 | 0.0953 | 0.165 | 0.0632 |
| HCC-827 | 0.17 | 0.153 | 0.154 | 0.122 | 0.827 | 0.811 | 0.829 | 0.559 | 0.966 | 0.874 | 0.977 | 0.98 | 1.02 | 0.829 | 0.892 | 0.518 | 0.441 | 0.438 | 0.366 | 0.412 |
| HOP-62 | 0.759 | 0.668 | 0.469 | 0.459 | 0.676 | 0.573 | 0.566 | 0.348 | 1.04 | 0.945 | 0.903 | 1.03 | 1.09 | 0.854 | 0.788 | 0.935 | 0.381 | 0.39 | 0.391 | 0.322 |
| LC-2-ad | 0.814 | 0.799 | 0.646 | 0.407 | 0.699 | 0.779 | 0.466 | 0.447 | 0.494 | 0.453 | 0.435 | 0.42 | 0.918 | 0.828 | 0.634 | 0.484 | 0.42 | 0.484 | 0.525 | 0.44 |
| LCLC-97TM1 | 0.34 | 0.469 | 0.258 | 0.133 | 0.712 | 0.658 | 0.619 | 0.212 | 0.34 | 0.329 | 0.303 | 0.284 | 0.268 | 0.353 | 0.265 | 0.176 | 0.26 | 0.382 | 0.194 | 0.223 |
| LCLC-103H | 0.803 | 0.728 | 0.588 | 0.456 | 0.84 | 0.737 | 0.634 | 0.469 | 0.989 | 0.963 | 0.99 | 1.04 | 0.946 | 1.03 | 0.818 | 0.848 | 0.495 | 0.609 | 0.516 | 0.477 |
| LK-2 | 0.357 | 0.392 | 0.147 | 0.0792 | 0.292 | 0.291 | 0.214 | 0.139 | 0.211 | 0.236 | 0.229 | 0.211 | 1.16 | 1.06 | 0.925 | 0.905 | 0.174 | 0.165 | 0.186 | 0.168 |
| LOU-NH91 | 0.803 | 0.718 | 0.567 | 0.495 | 1.09 | 0.901 | 0.797 | 0.651 | 0.709 | 0.727 | 0.72 | 0.715 | 0.742 | 0.741 | 0.697 | 0.585 | 0.693 | 0.727 | 0.658 | 0.645 |
| LU99A | 0.423 | 0.395 | 0.266 | 0.185 | 0.548 | 0.593 | 0.327 | 0.225 | 0.609 | 0.647 | 0.524 | 0.535 | 0.461 | 0.61 | 0.413 | 0.287 | 0.302 | 0.281 | 0.271 | 0.21 |
| LXF-289 | 1.19 | 1.14 | 1.08 | 0.849 | 0.885 | 0.696 | 0.763 | 0.557 | 0.786 | 0.819 | 0.841 | 0.888 | 1.08 | 1.07 | 1.06 | 0.822 | 0.209 | 0.201 | 0.238 | 0.172 |
| NCI-H23 | 0.203 | 0.258 | 0.209 | 0.155 | 0.636 | 0.722 | 0.349 | 0.263 | 0.563 | 0.619 | 0.53 | 0.543 | 0.728 | 0.77 | 0.827 | 0.487 | 0.43 | 0.359 | 0.364 | 0.281 |
| NCI-H322M | 0.55 | 0.607 | 0.495 | 0.339 | 0.955 | 0.888 | 0.741 | 0.543 | 0.934 | 0.986 | 0.941 | 0.979 | 0.845 | 0.8 | 0.872 | 0.684 | 0.455 | 0.552 | 0.449 | 0.455 |
| NCI-H358 | 0.542 | 0.521 | 0.335 | 0.267 | 0.816 | 0.693 | 0.603 | 0.264 | 0.773 | 0.638 | 0.563 | 0.562 | 0.831 | 0.981 | 0.769 | 0.595 | 0.0987 | 0.112 | 0.097 | 0.0994 |
| NCI-H441 | 1.18 | 1.11 | 1.11 | 0.7 | 0.972 | 0.682 | 0.607 | 0.457 | 0.798 | 0.639 | 0.612 | 0.643 | 0.735 | 0.833 | 0.698 | 0.541 | 0.68 | 0.573 | 0.498 | 0.462 |
| NCI-H460 | 0.72 | 0.66 | 0.627 | 0.183 | 0.796 | 0.757 | 0.842 | 0.155 | 0.86 | 0.905 | 0.855 | 0.893 | 0.509 | 0.521 | 0.301 | 0.141 | 0.362 | 0.691 | 0.601 | 0.665 |

From the supplement of paper PMC10307832
